Results reported in patent publication US9662404B2, “Compositions and methods for the delivery of molecules into live cells” (The Texas A&M University System, priority 2013, dated 2017).
Ends that are not written are not given here.

What was measured:
HeLa or NIH 3T3 cells = assay: dTAT-mediated delivery of EGFP by co-incubation; type: cell-based; settings: EGFP 10 μM and dTAT 5 μM, 1 h
Description: dTAT, DEAC-K9 and, SNAP-Surface® 488 are relatively small molecules. It was therefore addressed whether dTAT-mediated endosomal leakage could deliver large proteins into the cytosol of cells. For this assay, EGFP (26 kDa) was chosen as a model, since this protein is fluorescent only when properly folded. EGFP and dTAT were incubated for 1 h with cells and the protein distribution was examined by fluorescence. […] While protein degradation might take place during delivery, this assay establishes that a population of folded protein is delivered.
Images were acquired as described before.

[1] = test system: HeLa transfected with the pCALNL-GFP plasmid; type: cell-based; settings: delivery peptide 5 μM in the presence of TAT-Cre 1 μM, 1 h
Description: The number of cells in the images was approximately the same as assessed by bright field microscopy (1,000 cells/experiment, experiments in triplicate, average and standard deviations represented). Scale bars, 100 μM.
To further confirm that functional proteins can penetrate cells upon incubation with dTAT, delivery of Cre recombinase was tested. In this assay, Cre induces recombination of a loxP-STOP-loxP sequence upstream of the egfp gene of a reporter plasmid.

cells = assay: Whole-genome microarray analysis after dTAT treatment; type: cell-based; settings: 5 μM, 1 h; analysis immediately, 1 h or 24 h after treatment
Description: To better determine the effect of dTAT exposure on a cell, a whole-genome microarray analysis was performed on cells treated with 5 μM dTAT for 1 h to determine whether transcriptional patterns are influenced. Analysis was performed immediately, 1 h, or 24 h after dTAT treatment. […] The straight lines represent 2-fold intensity change cut-offs.

NIH 3T3 cells = assay: HoxB4 and TAT-HoxB4 delivery, luciferase reporter under a HoxB4-inducible promoter; type: cell-based, murine; settings: dTAT 3 μM alone
Description: Next, the delivery of the therapeutically important transcription factor HoxB4 was tested. HoxB4 can penetrate cells by itself or when fused to the […] TAT and activate transcription. […] NIH 3T3 cells were transfected with a vector containing the luciferase gene under a HoxB4-inducible promoter and with a β-galactosidase reporter as internal control. Cells were incubated with HoxB4 or TAT-HoxB4, in the absence or presence of dTAT for 1.5 h. Cells were then lysed and luciferase expression was assessed by measuring the luminescence of cell lysates normalized to β-galactosidase activity. […] These values are consistent with previously published reports. In contrast, addition of dTAT (3 μM), led to a luciferase induction of 53.1 and 307.4, respectively. The luciferase induction was therefore increased 24-fold in the presence of dTAT for HoxB4 and 61-fold for TAT-HoxB4. […] While increasing the transcriptional output of HoxB4 is valuable, high levels of HoxB4 expression can result in anti-proliferative and transforming effects. Precisely controlling the level and activity of HoxB4 inside cells is therefore important to achieve a desirable biological outcome. Because dTAT appears to act independently of the molecules used for co-incubation in our assays, it was hypothesized that it might be possible to titrate the amount of protein that penetrates cells by varying the protein concentration in the media while keeping dTAT concentration constant. Under this scenario, the efficiency of endosomal escape should remain unaffected but the amount of material released from endosomes should change.
The murine fibroblast cell line (NIH-3T3, stably transfected with the E2A-PBX vector), the luciferase reporter vector, pML (5×HOX/PBX; contains a promoter with binding sites for HOXB4 and PBX) and the β-gal internal control vector used in the following studies were kindly provided by P. Zandstra (University of Toronto, Ontario, Canada). The cells were initially cultured in 100 mm dishes at 37° C. with 5% CO2 in DMEM supplemented with 10% FBS. For experimental purposes, however, cells were seeded in 24-well plates at a density of 5-6×10^4 cells/well for 24 hours. Subsequently, cells were co-transfected with 0.8 μg/mL of pML (5×HOX/PBX) and of the β-gal internal control vector using Lipofectamine 2000. Twelve hours post-transfection, cells were washed and incubated with TAT-HoxB4 or HoxB4 (both at 200 nM, unless otherwise noted; see below) with or without TAT or dTAT in nrL-15 for 90 min. Some cells were also incubated with TAT-mCherry (200 nM) with and without the peptides. After incubation, all cells were washed with PBS and lysed according to the manufacturer's protocol for the reporter lysis buffer (RLB) (Promega). For titration experiments, the same protocol was followed, with the exception that HoxB4 concentrations were varied (25, 50, 100, 150 and 200 nM). In order to quantitate the luciferase reporter activity, 100 μL of luciferase assay reagent (Promega) was added to 20 μL of cell lysate and bioluminescence was immediately measured using a SpectraMaxL luminometer (Sunnyvale, Calif.). […] Absorbance was then measured at 450 nm using the plate reader. Since the absorption spectrum of the chromophore (TMR) conjugated to the peptide used in this study overlaps with that of β-gal, 20 μL of cell lysate containing the peptide was also diluted with 180 μL of the lysis buffer and absorbance values obtained at 450 nm were subtracted from that of the β-gal absorbance values. […]

HeLa cells = assay: Cell proliferation, MTT assay; type: cell-based; settings: 5 μM, 1 h; up to 36 h after incubation
Description: In order to determine cells that had compromised plasma membranes, cells were treated with SYTOX® Green (SYTOX® Blue in some cases) and Hoechst (Invitrogen, Carlsbad, Calif.). SYTOX® dyes are cell-impermeable and stain the DNA of cells with compromised plasma membranes. The Hoechst dye is cell permeable and stains the DNA of all cells. Images were acquired using the green and blue filter. The green and blue images were used to count cells with a blue or green stained nucleus. Image J was used to count the dead (green) and total cells (blue). Cytotoxicity was determined from the ratio of SYTOX® Green positive cells/total number of cells. An MTT-assay was performed to determine the effect of the peptide on cell proliferation. Cells were seeded in a 6-well dish, grown and washed as described above. One well from the dish was incubated with 5 μM dTAT at 37° C. for 1 h. A second well was left untreated and served as control. […] Cells were trypsinized and seeded into 96-well dishes containing 200 μL of DMEM. The cells were then allowed to attach to the bottom of the dish for 12 h. […] After the incubation each sample was mixed and the absorbance at 600 nm was measured. […] A second control consisted of cells treated with the delivery peptide but to which no MTT was added to subtract the contribution of TMR from the measured absorbance. The absorbance of the negative control was subtracted from all samples.

(CK(TMR)TAT)2 (CK(TMR)RKKRRQRRRG; also: dimer) [dTAT, dimer of two CK(TMR)-TAT monomers linked via a disulfide bond between the N-terminal cysteine residues]
cells with EGFP distributed into the cytosol and nucleus (HeLa or NIH 3T3 cells): more than 90% | toxicity during EGFP delivery (HeLa or NIH 3T3 cells): without observable toxicity | percentage of EGFP+ cells [1]: 47% | transcriptional response on a whole-genome scale (cells): minimal transcriptional perturbations | induction of luciferase (NIH 3T3 cells): Neither dTAT alone nor dTAT incubated with TAT-mCherry led to the induction of luciferase | cell growth versus untreated cells (HeLa cells): grow at the same rate as untreated cells
